The target in test [1] is T1, CRF1R (Homo sapiens, UniProt P34998).
T1 sequence (P34998 24-415): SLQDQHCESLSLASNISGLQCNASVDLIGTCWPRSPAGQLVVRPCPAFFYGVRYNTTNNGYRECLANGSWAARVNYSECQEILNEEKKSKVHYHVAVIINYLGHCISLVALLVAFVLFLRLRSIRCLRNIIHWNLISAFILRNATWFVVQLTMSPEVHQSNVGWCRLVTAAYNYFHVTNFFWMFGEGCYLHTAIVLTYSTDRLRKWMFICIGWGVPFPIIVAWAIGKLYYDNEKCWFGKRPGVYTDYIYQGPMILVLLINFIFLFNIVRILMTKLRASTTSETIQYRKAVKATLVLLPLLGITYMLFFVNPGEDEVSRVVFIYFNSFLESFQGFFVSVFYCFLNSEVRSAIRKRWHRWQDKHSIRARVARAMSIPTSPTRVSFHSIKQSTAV
Kind of test: CRF1R agonist activity (EC50 and Emax), called comparative CRF binding. The class given is cell-based. Put shortly: (§1)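 Steps: express single CRFR subtype in cells; add peptide or vehicle; prepare lysates or quantify CRE-linked reporter (e.g. luciferase, CAT, GFP, alkaline phosphatase) to gauge cAMP increase.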

Test [2] addresses T2, CRF2R (Homo sapiens, UniProt Q13324).
T2 sequence (Q13324 1-411): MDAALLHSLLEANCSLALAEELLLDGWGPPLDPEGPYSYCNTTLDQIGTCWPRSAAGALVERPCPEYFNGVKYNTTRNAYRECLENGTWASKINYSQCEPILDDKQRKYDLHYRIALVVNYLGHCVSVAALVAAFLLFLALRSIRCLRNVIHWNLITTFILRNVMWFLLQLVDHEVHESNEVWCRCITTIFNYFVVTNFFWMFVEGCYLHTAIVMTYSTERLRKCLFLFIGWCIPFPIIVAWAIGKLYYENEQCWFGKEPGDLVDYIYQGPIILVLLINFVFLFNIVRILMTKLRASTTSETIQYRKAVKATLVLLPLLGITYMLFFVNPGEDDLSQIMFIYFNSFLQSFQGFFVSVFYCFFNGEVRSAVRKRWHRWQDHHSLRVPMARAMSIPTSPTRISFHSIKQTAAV
Kind of test: CRF2R agonist activity (EC50 and Emax), called comparative CRF binding. The test is classed as cell-based. An outline of the steps:
as §1

Here are results for 17 compounds from patent publication US7632933B2, “Corticotropin releasing factor 2 receptor agonists” (priority 2002, dated 2009).

Read-outs that look alike come from different tables or passages of the source. Ends that are not written are not given here. Peptide text beside a SMILES is read from it.

For `CC[C@H](C)[C@H](NC(=O)[C@H](C)NC(=O)[C@H](CC(N)=O)NC(=O)[C@H](CCC(N)=O)NC(=O)[C@H](CCC(=O)O)NC(=O)[C@H](C)NC(=O)[C@H](CCCNC(=N)N)NC(=O)[C@H](CCC(=O)O)NC(=O)[C@H](CCCNC(=N)N)NC(=O)[C@H](CCC(N)=O)NC(=O)[C@H](CO)NC(=O)[C@H](CCC(N)=O)NC(=O)[C@@H](NC(=O)[C@H](CCCNC(=N)N)NC(=O)[C@H](C)NC(=O)[C@H](CC(C)C)NC(=O)[C@H](CCC(=O)O)NC(=O)[C@H](CC(C)C)NC(=O)[C@H](CC(C)C)NC(=O)[C@@H](NC(=O)[C@H](CCCNC(=N)N)NC(=O)[C@H](CC(C)C)NC(=O)[C@H](CC(C)C)NC(=O)[C@H](Cc1ccc(O)cc1)NC(=O)[C@H](CCC(N)=O)NC(=O)[C@@H]1CCCN1C(=O)[C@H](CC(C)C)NC(=O)[C@H](CC(=O)O)NC(=O)[C@@H](NC(=O)[C@H](CO)NC(=O)[C@H](CC(C)C)NC(=O)[C@H](CO)NC(=O)[C@@H]1CCCN1C(=O)[C@H](CC(N)=O)NC(=O)[C@@H](N)CC(=O)O)[C@@H](C)CC)[C@@H](C)O)[C@@H](C)O)C(=O)N[C@H](C(=O)N[C@@H](Cc1ccccc1)C(=O)N[C@@H](C)C(=O)N[C@@H](CO)C(=O)N[C@H](C(N)=O)C(C)C)[C@@H](C)CC` [compound 339] (H-DNPSLSIDLPQYLLRTLLELARTQSQRERAEQNAIIFASV-NH2), the EC50 was ≥ 1000 nM in test [1] (CRF1R, read-out: CRF1R EC50) and ≥ 100 nM in test [2] (CRF2R, read-out: CRF2R EC50).
The matching figures for `CC[C@H](C)[C@H](NC(=O)[C@H](C)NC(=O)[C@H](CC(N)=O)NC(=O)[C@H](CCC(N)=O)NC(=O)[C@H](CCC(=O)O)NC(=O)[C@H](C)NC(=O)[C@H](CCCNC(=N)N)NC(=O)[C@H](CCC(=O)O)NC(=O)[C@H](CCCNC(=N)N)NC(=O)[C@H](CCC(N)=O)NC(=O)[C@H](CO)NC(=O)[C@H](CCC(N)=O)NC(=O)[C@@H](NC(=O)[C@H](CCCCN)NC(=O)[C@H](CCC(=O)O)NC(=O)[C@H](CC(C)C)NC(=O)[C@H](CCC(=O)O)NC(=O)[C@H](CC(C)C)NC(=O)[C@H](CC(C)C)NC(=O)[C@@H](NC(=O)[C@H](CCCNC(=N)N)NC(=O)[C@H](CC(C)C)NC(=O)[C@H](CC(C)C)NC(=O)[C@H](CCC(N)=O)NC(=O)[C@H](CC(C)C)NC(=O)[C@@H]1CCCN1C(=O)[C@H](CC(C)C)NC(=O)[C@H](CC(=O)O)NC(=O)[C@@H](NC(=O)[C@H](CO)NC(=O)[C@H](CC(C)C)NC(=O)[C@H](CO)NC(=O)[C@@H]1CCCN1C(=O)[C@H](CC(N)=O)NC(=O)[C@@H](N)CC(=O)O)[C@@H](C)CC)[C@@H](C)O)[C@@H](C)O)C(=O)N[C@H](C(=O)N[C@@H](Cc1ccccc1)C(=O)N[C@@H](C)C(=O)N[C@@H](CO)C(=O)N[C@H](C(N)=O)C(C)C)[C@@H](C)CC` [compound 342] (H-DNPSLSIDLPLQLLRTLLELEKTQSQRERAEQNAIIFASV-NH2; N-terminus assumed): ≥ 1000 nM and 20.3 nM.
For `CC[C@H](C)[C@H](N)C(=O)N[C@H](C(=O)N[C@@H](CC(C)C)C(=O)N[C@@H](CO)C(=O)N[C@@H](CC(C)C)C(=O)N[C@@H](CC(=O)O)C(=O)N[C@H](C(=O)N1CCC[C@H]1C(=O)N[C@H](C(=O)NCC(=O)N[C@@H](CC(C)C)C(=O)N[C@@H](CC(C)C)C(=O)N[C@@H](CCC(N)=O)C(=O)N[C@H](C(=O)N[C@@H](CC(C)C)C(=O)N[C@@H](CC(C)C)C(=O)N[C@@H](CCC(=O)O)C(=O)N[C@@H](CCCCN)C(=O)N[C@@H](C)C(=O)N[C@@H](C)C(=O)N[C@@H](C)C(=O)N[C@@H](CCC(=O)O)C(=O)N[C@@H](C)C(=O)N[C@@H](CCC(=O)O)C(=O)N[C@@H](C)C(=O)N[C@@H](C)C(=O)N[C@@H](C)C(=O)N[C@@H](CCCCN)C(=O)N[C@@H](C)C(=O)N[C@@H](C)C(=O)N[C@@H](CCC(N)=O)C(=O)N[C@@H](CCC(=O)O)C(=O)N[C@@H](CCC(N)=O)C(=O)N[C@H](C(=O)N[C@@H](CC(C)C)C(=O)N[C@@H](C)C(=O)N[C@@H](Cc1c[nH]cn1)C(=O)N[C@H](C(N)=O)C(C)C)[C@@H](C)CC)[C@@H](C)CC)[C@@H](C)CC)C(C)C)C(C)C` [compound 366] (H-IVLSLDVPIGLLQILLEKAAAEAEAAAKAAQEQILAHV-NH2), in that order: ≥ 1000 nM and ≥ 100 nM.
For `CC[C@H](C)[C@H](N)C(=O)N[C@H](C(=O)N[C@@H](CC(C)C)C(=O)N[C@@H](CO)C(=O)N[C@@H](CC(C)C)C(=O)N[C@@H](CC(=O)O)C(=O)N[C@H](C(=O)N1CCC[C@H]1C(=O)N[C@H](C(=O)NCC(=O)N[C@@H](CC(C)C)C(=O)N[C@@H](CC(C)C)C(=O)N[C@@H](CCC(N)=O)C(=O)N[C@H](C(=O)N[C@@H](CC(C)C)C(=O)N[C@@H](CC(C)C)C(=O)N[C@@H](CCC(=O)O)C(=O)N[C@@H](CCC(N)=O)C(=O)N[C@@H](C)C(=O)N[C@@H](CCCNC(=N)N)C(=O)N[C@@H](Cc1c[nH]cn1)C(=O)N[C@@H](C)C(=O)N[C@@H](Cc1c[nH]cn1)C(=O)N[C@@H](C)C(=O)N[C@@H](Cc1c[nH]cn1)C(=O)N[C@@H](C)C(=O)N[C@@H](Cc1c[nH]cn1)C(=O)N[C@@H](C)C(=O)N[C@@H](Cc1c[nH]cn1)C(=O)N[C@@H](C)C(=O)N[C@@H](CCC(N)=O)C(=O)N[C@@H](C)C(=O)N[C@@H](Cc1c[nH]cn1)C(=O)N[C@H](C(=O)N[C@@H](CC(C)C)C(=O)N[C@@H](C)C(=O)N[C@@H](Cc1c[nH]cn1)C(=O)N[C@H](C(N)=O)C(C)C)[C@@H](C)CC)[C@@H](C)CC)[C@@H](C)CC)C(C)C)C(C)C` [compound 369] (H-IVLSLDVPIGLLQILLEQARHAHAHAHAHAQAHILAHV-NH2), in that order: ≥ 1000 nM and ≥ 100 nM.
With `CC[C@H](C)[C@H](NC(=O)[C@H](CCC(N)=O)NC(=O)[C@H](C)NC(=O)[C@H](CCSC)NC(=O)[C@H](CC(C)C)NC(=O)[C@H](Cc1c[nH]cn1)NC(=O)[C@H](C)NC(=O)[C@H](CC(N)=O)NC(=O)[C@H](C)NC(=O)[C@H](C)NC(=O)[C@H](C)NC(=O)[C@H](CCC(N)=O)NC(=O)[C@H](C)NC(=O)[C@H](CCCNC(=N)N)NC(=O)[C@H](CC(C)C)NC(=O)[C@H](CC(N)=O)NC(=O)[C@H](CCCCN)NC(=O)[C@H](C)NC(=O)[C@H](CCCCN)NC(=O)[C@H](C)NC(=O)[C@@H](NC(=O)[C@H](CC(N)=O)NC(=O)[C@H](Cc1ccccc1)NC(=O)[C@H](CC(C)C)NC(=O)[C@H](CC(C)C)NC(=O)[C@H](CC(N)=O)NC(=O)[C@H](CCSC)NC(=O)[C@@H](NC(=O)[C@H](CC(N)=O)NC(=O)[C@@H](NC(=O)[C@@H]1CCCN1C(=O)[C@@H](NC(=O)[C@H](CC(=O)O)NC(=O)[C@H](CC(C)C)NC(=O)[C@H](CO)NC(=O)[C@H](CC(C)C)NC(=O)[C@@H](NC(=O)[C@H](Cc1ccccc1)NC(=O)[C@H](CCCCN)NC(=O)[C@@H](N)[C@@H](C)O)[C@@H](C)O)C(C)C)[C@@H](C)O)[C@@H](C)CC)[C@@H](C)CC)C(N)=O` [hUroIII, reference compound] (H-TKFTLSLDVPTNIMNLLFNIAKAKNLRAQAAANAHLMAQI-NH2), the EC50 in test [1] (CRF1R EC50) is > 1000 nM; in test [2] (CRF2R EC50), > 100 nM.
Turning to “NDDPPISIDLPFQLLRNMIEMARIENEREQAGLNAKYLAEV-NH2 [compound 258]”, the EC50 in test [1] (CRF1R, read-out: CRF1R EC50) was ≥ 1000 nM; in test [2] (CRF2R, read-out: CRF2R EC50), ≥ 100 nM.
For “NDDPPISIDLPLILLRNMIEMARIENEREQAGLNAKYLAEV-NH2 [compound 269]”, in that order: ≥ 1000 nM and ≥ 100 nM.
The matching figures for “NDDPPISIDLPLLLLRNMIEMARIENEREQAGLNAKYLAEV-NH2 [compound 268]”: ≥ 1000 nM and ≥ 100 nM.
The matching figures for “NDDPPISIDLPLQLLRNMIEMARIENEREQAGLNAKYLAEV-NH2 [compound 270]”: ≥ 1000 nM and ≥ 100 nM.
For “NDDPPISIDLPQYLLRNMIEMARIENEREQAGLNAKYLAEV-NH2 [compound 265]”, the EC50 is ≥ 1000 nM in test [1] (CRF1R, read-out: CRF1R EC50) and ≥ 100 nM in test [2] (CRF2R, read-out: CRF2R EC50).
The matching figures for “NDDPPISIDLPTYLLRNMIEMARIENEREQAGLNAKYLAEV-NH2 [compound 266]”: ≥ 1000 nM and ≥ 100 nM.
For “NDDPPISIDLPYYLLRNMIEMARIENEREQAGLNAKYLAEV-NH2 [compound 267]”, in that order: ≥ 1000 nM and ≥ 100 nM.
In the case of “SEEPPISLDLTFHLLREVLEMARAEQLAQQAHTNARILARV-NH2 [compound 161]”, the EC50 in test [1] (CRF1R, read-out: CRF1R EC50) is > 100 nM; in test [2] (CRF2R, read-out: CRF2R EC50) it was > 100 nM.
For “SEEPPISLDVPIGLLQEVLEMARAEQLAQQAHSNRKLMEII-NH2 [compound 162]”, the EC50 is > 100 nM in test [1] (CRF1R, read-out: CRF1R EC50) and > 100 nM in test [2] (CRF2R, read-out: CRF2R EC50).
As to “SQEIVLSLDVPIGLLREVLEMTKADQLAQQAHSNRKLLDIA-NH2 [compound 7]”, the “CRF1R (Emax %)” value in test [1] (CRF1R, Emax) is reported as “(4) %”. In test [2] (CRF2R, Emax), the “CRF2R (Emax %)” value was “(19) %”.
As for “SQEPPISLDLPFELLREVLEMTKADQLAQQAHSNRKLLDIA-NH2 [compound 97]”, the EC50 in test [1] (CRF1R, read-out: CRF1R EC50) is ≥ 100 nM; in test [2] (CRF2R, read-out: CRF2R EC50), ≥ 100 nM.
As to “SQEPPISLDLPFGLLREVLEMTKADQLAQQAHSNRKLLDIA-NH2 [compound 103]”, the EC50 in test [1] (CRF1R, read-out: CRF1R EC50) is ≥ 100 nM; in test [2] (CRF2R, read-out: CRF2R EC50), ≥ 100 nM.

As a reminder, the EC50 is the midpoint of the concentration-response curve.
